The values below come from publication PMC9738927, “A Newly Identified Monoterpenoid-Based Small Molecule Able to Support the Survival of Primary Cultured Dopamine Neurons and Alleviate MPTP-Induced Toxicity In Vivo” (Molecules, 2022).

In data set [1] the test system is MPP^+-treated primary midbrain dopamine neurons. Put plainly: Survival of MPP+-challenged cultured dopamine neurons (TH-positive cell count). The format is cell-based, mouse. The procedure: We developed a compound library containing 20 diol derivatives and screened them on cultured primary DA neurons (Supplementary Materials, Table S1). Compounds were taken at a dose of 0.1 and 1 μM (based on effective doses for the epoxydiol). Based on the screening results, we selected four compounds and tested them in a naïve and MPP^+-treated (1-methyl-4-phenylpyridinium (MPP^+), the neurotoxic metabolite of MPTP) DA culture at 1, 10, and 100 nM to select the compound with the lowest effective dose.
The survival of cultured mouse DA neurons was assessed as described before. Briefly, naïve or MPP^+ (dopaminergic selective neurotoxin)-challenged embryonic midbrain neurons were cultured in the presence or absence of a diol-like compound. The number of survived DA neurons was estimated after immunocytochemical staining with antibodies recognizing the key enzyme of dopamine synthesis—tyrosine hydroxylase.

The test system of data set [2] is nigrostriatal dopamine system of MPTP-treated mice. Put plainly: TH immunohistochemistry of striatum and substantia nigra in MPTP-treated mice. In kind it is in vivo, C57Bl/6 male mice. The method, then:
The samples were collected 7 days after the last administration of PA96. Mice were anesthetized using terminal phenobarbital injection (50 mg/kg), perfused trans-cardially with PBS, and then 4% paraformaldehyde in PBS in accordance with. The brains were collected, treated, and embedded into paraffin blocks using the histological complex Microm (Fürth, Germany).
To analyze the effect of PA96 in dopamine neurons in vivo, tyrosine hydroxylase immunohistochemistry was performed as described previously. The PFA-fixed and paraffin-embedded brains were cut into 5 µm thick sections (3 sections per slide), and every fifth slide was taken for TH staining. The sections were deparaffinized, followed by a citrate antigen retrieval procedure. Endogenous peroxidase was inactivated by 30 min incubation with 3% H2O2. The sections were blocked with 5% normal goat serum and then probed with monoclonal TH antibody (1:2000, Millipore Cat# MAB318 Lot# RRID:AB_2201528) overnight at +4 °C. The sections were washed, and biotinylated horse antimouse secondary antibody (1:200, Cat# BA-2001, Vector Laboratories, Burlingame, CA, USA) was applied for 1 h, followed by washing. […]
The sections were scanned with an automated scanner (3DHistech, Budapest, Hungary), and the images were converted to 16-bit grayscale. […] The integrated optical densities in images were measured in ImageJ (NIH) and divided by area in pixels.

The nature of data set [3]: Pharmacokinetics in brain tissue after a single oral dose (HPLC-MS/MS). The format is in vivo, CD1 IGS mice. The note with it: single oral 10 mg/kg. The method, then: CD1 IGS mice received a single oral dose of PA96 in Tween 80 (10 mg/kg). Mice were sacrificed 5, 10, 30, 60, and 120 min after injection, and all brain samples were collected and placed into an Eppendorf microtube (2 mL). Samples were frozen with liquid nitrogen for subsequent preparation and HPLC-MS/MS analysis. A set of calibrators were prepared, followed by their preparation protocol, and analyzed. The calibration curve was built in the interval of 1–100 ng/g and used to calculate the PA96 concentration in the brain tissue samples.
A stock solution was prepared by dissolving approximately 10 mg of PA96 in a required amount of pure methanol to have the solution with a concentration of 1.0 mg/mL. The working solutions of PA96 with concentrations of 5, 7.5, 25, 50, 75, 250, and 300 ng/mL were prepared by diluting the stock solution with methanol. To prepare a calibrator, a free PA96 brain tissue (~50 mg) was weighed and transferred into an Eppendorf microtube (V = 1.5 mL), then the working solution of PA-96 was added. The mixture was homogenized (Minilys, Bertin Technologies, Montigny-leBretonneux, France) for 60 s at low speed. The calibrators were prepared on the day of the experiment. The working solution of IS in acetonitrile with a concentration of 1.0 mg/mL was used. All the solutions were stored at −18 °C. Before sample preparation, the solutions were brought to room temperature.
The exact amount (~50 mg) of the mouse brain tissue sample was transferred into a polypropylene tube (1.5 mL). For each portion, the solution of IS (1 µL per 1 mg of the brain sample) and pure acetonitrile (10 µL per 1 mg of the brain sample) were added, then all samples were homogenized for 4 min at medium speed. After the homogenization procedure, ~100 mg of the salt mixture (magnesium sulfate: sodium chloride: trisodium citrate: disodium citrate as 4:1:1:0.5) for extraction was added, followed by shaking for 30 min at 1400 rpm in an orbital shaker. The supernatant was separated from the homogenate by centrifugation for 10 min at 13,400 rpm. The obtained solution was further shaken with ~80 mg of the SPE mixture (magnesium sulfate:C18EC as 6:1 and acetonitrile) for 10 min at 1400 rpm and centrifuged for 10 min at 13,400 rpm. A total of 300 µL of the organic phase was placed into a fresh tube and evaporated to dryness in a vacuum. The residue containing the analyte and IS was dissolved in 150 μL of methanol, shaken for 10 min, transferred into a chromatographic vial, and analyzed by HPLC-MS/MS.
The LC-MS/MS analysis was performed using an LC-20AD Prominence chromatograph equipped with an autosampler thermostated at +10 °C (Shimadzu, Japan) and a 3200 QTRAP mass spectrometer equipped with an ESI source (AB SCIEX, USA). Separation was achieved on a ProntoSil-120-5-C18 AQ column (2.0 × 75 mm, 5 μm particles, (EcoNova, Novosibirsk, Russia)) thermostated at +35 °C. The mobile phase was composed of water containing 0.1% formic acid (eluent A) and methanol containing 0.1% formic acid (eluent B). The gradient elution program was as follows: 0 min-10% (B); 0.5 min-10% (B); 7 min-98% (B); 9 min-98% (B); the flow rate was 200 μL/min.
The mass spectrometer was operated using multiple reaction monitoring (MRM) in positive ion mode. Ionization was conducted by applying a voltage of 5500 V, and the source temperature was set at +350 °C. For the analyte and IS, the optimized source parameters, viz. CUR (curtain gas), GS1 (Gas 1), and GS2 (Gas 2) were set at 20 psi. The CAD (collisionally activated dissociation) gas was nitrogen, and the parameter was set as high. The parameters of PA96, viz. MRM transitions, declustering potentials (DP), collision energies (CE), and collision cell exit potentials (CXP) are presented in Table 3. The dwell time was 100 msec. Analyst 1.6.2 software (AB SCIEX, USA) was used for instrument control and data acquisition, and MultiQuant 2.1 software (AB SCIEX, USA) was used for quantification. […]

For the molecule `C=C(C)[C@@H]1CC=C(C)[C@@H](Sc2nc[nH]n2)[C@@H]1O` [PA96, (1R,2R,6S)-2-(1H-1,2,4-triazol-3-ylthio)-3-methyl-6-(prop-1-en-2-yl)cyclohex-3-enol], the “number of TH-positive neurons relative to VEH-treated wells” value in data set [1] (MPP+ and 1 nM, p = 0.03) came to 2.4 fold. Further, the inhibition at 0.1 µM in data set [1] (Mus musculus, Neuron, 100 nM, compared to VEH-treated wells, read-out: Support effect / inhibition, MPP+-treated dopamine neurons, 100 nM) is 0%. Moreover, the “increase of the number of TH-positive neurons in SN” value in data set [2] (1 mg/kg, compared to MPTP-treated mice) is 37%. Further, in data set [2] (1 and 10 mg/kg), the “density of TH-positive fibers in the striatum (loss induced by MPTP)” value was “not alleviated”. In addition, the Kp in data set [3] (CD1 IGS, mouse, brain and whole blood, read-out: Kb,brain (brain-to-blood coefficient, AUCbrain/AUCblood)) worked out at 0.119 ± 0.01. In data set [3] (CD1 IGS, mouse, brain), the Cmax is 125 ng/g, the Tmax is 5 min and the half-life was found to be 18.8 ± 0.3 min. Besides, the MRT inf in data set [3] (CD1 IGS, mouse, brain, read-out: MRT0-inf_obs (converted)) was 21.5 min. In addition, the “concentration in blood higher than in brain tissue” value in data set [3] (at 5 min) is recorded as “approximately 4.5 times”. In addition, in data set [3] (brain), the AUC0-inf_obs entry is “(2.03 ± 0.09) × 10^3 ng/g∗min” and the AUC0-t result is given as “(1.99 ± 0.09) × 10^3 ng/g∗min”. The “time at which the concentration in brain was close to the minimum value” in data set [3] is recorded as 2 h.

Broadly, the Cmax is the peak of the concentration-time curve. The Tmax is the time from dosing to the highest level. One may read the half-life as how long it takes for the measured level to halve.
